Read-outs that look alike come from different tables or passages of the source.
Assays:
HeLa cells [1] = assay: Cell survival inhibition assay, HeLa; type: cell-based; details: HeLa (HPV-18), 24 hours, 10-100 μM
Description: (§1) In this sense, a cell survival inhibition assay of different cell lines was carried out when exposed for hours 24 to one of the two drugs from FIG. 1. In this experiment, four cell lines were tested: HeLa, which are cell lines representative of cancer and HPV-18 infection, SiHa which are cells representative of cervical cancer with HPV-16 infection, C-33A which are cells representative of HPV-negative cervical carcinoma, and HaCaT, which are cancer and infection negative cells. The experiment consisted of exposing cells of the different cell lines to different concentrations of both drugs for 24 hours (10-100 μM) going in steps of 10 μM each.

HaCaT cells = assay: Alkaline comet assay (single cell electrophoresis), HaCaT; type: cell-based
Description: (§2) This difference in drug performance can be explained by the difference in their mechanisms of action. […] The comet assay is an experiment that allows to see if the drug has a cytotoxic effect related to DNA fragmentation of the cells. This difference is visualized by the size of the “tails” of the “comets”, which is the fragmented DNA from the cells under study.
(§3) An analysis with a Wilcoxon test was performed to verify whether the means in the percentage of DNA in the comet tails of the different cell lines differ.
(§4) FIG. 2 depicts representative tail-DNA percentage data. (A) Microphotographs of the alkaline comet assay showing representative images of the CC cell lines and their negative control with their 18β and GA treatments of HeLa (HPV 18 cervical cancer) and HaCaT (HPV negative immortalized keratinocyte) (B) Comet assay data plot of Tail-DNA percentage **P<0.43 for HaCaT and P<2^−16. Larger comets for 18β treatment are observed.

C-33A cells = assay: Cell survival inhibition assay, C-33A; type: cell-based; details: C-33A (HPV-negative cervical carcinoma), 24 hours, 10-100 μM
Description: as §1

Rotavirus = details: infected cultures; cited from earlier work
SiHa cells = assay: Cell survival inhibition assay, SiHa; type: cell-based; details: SiHa (HPV-16), 24 hours, 10-100 μM
Description: as §1

[2] = cited from earlier work
HeLa cells [3] = assay: Alkaline comet assay (single cell electrophoresis), HeLa; type: cell-based; details: HeLa cancer cells
Description: as §2, §3, §4

[4] = cited from earlier work; remark: listed apart in the source
Hepatitis C virus (HCV) = details: by preventing the release of infectious viral particles; cited from earlier work

| Structure (SMILES) | inhibition of cell survival (HeLa cells [1]) | DNA fragmentation (comet tails) (HaCaT cells) | inhibition of cell survival (C-33A cells) | interference with Rotavirus replication (Rotavirus) | inhibition of cell survival (SiHa cells) | solubility in water [2] | DNA fragmentation (comet tails) (HeLa cells [3]) | log P [4] | reduction of Hepatitis C virus (HCV) titers (Hepatitis C virus (HCV)) [%] | DNA fragmentation (comet tails) (HaCaT cells; HaCaT healthy cells) |
| --- | --- | --- | --- | --- | --- | --- | --- | --- | --- | --- |
| CC1(C)[C@@H](O)CC[C@]2(C)[C@H]3C(=O)C=C4[C@@H]5C[C@@](C)(C(=O)O)CC[C@]5(C)CC[C@@]4(C)[C@]3(C)CC[C@@H]12 [Example 18β-GA, 18β-glycyrrhetinic acid] | greater effect than GA | much less fragmentation | greater effect than GA | up to 99% | greater effect than GA | insoluble in water | considerable DNA fragmentation | 6.574 |  |  |
| CC1(C)[C@@H](O[C@H]2O[C@H](C(=O)O)[C@@H](O)[C@H](O)[C@H]2O[C@@H]2O[C@H](C(=O)O)[C@@H](O)[C@H](O)[C@H]2O)CC[C@]2(C)[C@H]3C(=O)C=C4[C@@H]5C[C@@](C)(C(=O)O)CC[C@]5(C)CC[C@@]4(C)[C@]3(C)CC[C@@H]12 [GA, Glycyrrhizic acid] | minor effect |  | minor effect |  | no effect |  | do not present this fragmentation |  | 50 | do not present this fragmentation |
